Measured values as given in ChEMBL document CHEMBL1201862, “PubChem BioAssay data set” (2004).
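Exposure lasted 48 hours, with cells grown in 96-well plates and compounds tested at five concentrations. Abbreviation: GI50, concentration required for 50% inhibition of growth.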 Calls of active or inactive are those of the source. Rule as the data show it: active = GI50 up to about 1.1 µM and inactive = higher.

How the values were obtained:
Experiment in all cases: growth of human tumour cells (NCI), 48 h
[1] = test system: MDA-MB-435
[2] = test system: IGROV-1
[3] = test system: M14
[4] = test system: RPMI-8226
[5] = test system: KM12
[6] = test system: SW-620
[7] = test system: HCT-116
[8] = test system: SN12C
[9] = test system: PC-3
[10] = test system: SK-MEL-2
[11] = test system: HOP-62
[12] = test system: HCC 2998
[13] = test system: ACHN
[14] = test system: SF-295
[15] = test system: Hs-578T
[16] = test system: CCRF-CEM
[17] = test system: SNB-75
[18] = test system: MOLT-4
[19] = test system: COLO 205
[20] = test system: CAKI-1
[21] = test system: RXF 393
[22] = test system: NCI-H23
[23] = test system: SK-OV-3
[24] = test system: HL-60
[25] = test system: SNB-19
[26] = test system: EKVX
[27] = test system: OVCAR-5
[28] = test system: UACC-62
[29] = test system: MCF7
[30] = test system: TK-10
[31] = test system: U-251
[32] = test system: BT-549
[33] = test system: UACC-257
[34] = test system: T47D
[35] = test system: OVCAR-4
[36] = test system: NCI/ADR-RES
[37] = test system: SK-MEL-28
[38] = test system: OVCAR-3
[39] = test system: LOX IMVI
[40] = test system: NCI-H226
[41] = test system: OVCAR-8
[42] = test system: SF-268
[43] = test system: NCI-H522
[44] = test system: HOP-92
[45] = test system: SK-MEL-5
[46] = test system: Malme-3M
[47] = test system: HCT-15
[48] = test system: A498
[49] = test system: HT-29
[50] = test system: K562
[51] = test system: A549
[52] = test system: UO-31
[53] = test system: MDA-N
[54] = test system: MDA-MB-231
[55] = test system: 786-0
[56] = test system: DU-145
[57] = test system: NCI-H460

Measured: GI50

OCC(O)CNc1ncnc2ccccc12 (configuration not stated)
inactive: [1] > 100 µM | [2] > 100 µM | [3] > 100 µM | [4] > 100 µM | [5] > 100 µM | [6] > 100 µM | [7] > 100 µM | [8] > 100 µM | [9] > 100 µM | [10] > 100 µM | [11] > 100 µM | [12] > 100 µM | [13] > 100 µM | [14] > 100 µM | [15] > 100 µM | [16] > 100 µM | [17] > 100 µM | [18] > 100 µM | [19] > 100 µM | [20] > 100 µM | [21] > 100 µM | [22] > 100 µM | [23] > 100 µM | [24] > 100 µM | [25] > 100 µM | [26] > 100 µM | [27] > 100 µM | [28] > 100 µM | [29] > 100 µM | [30] > 100 µM | [31] > 100 µM | [32] > 100 µM | [33] > 100 µM | [34] > 100 µM | [35] > 100 µM | [36] > 100 µM | [37] > 100 µM | [38] > 100 µM | [39] > 100 µM | [40] > 100 µM | [41] > 100 µM | [42] > 100 µM | [43] > 100 µM | [44] > 100 µM | [45] > 100 µM | [46] > 100 µM | [48] > 100 µM | [49] > 100 µM | [50] > 100 µM | [51] > 100 µM | [52] > 100 µM | [53] > 100 µM | [54] > 100 µM | [55] > 100 µM | [56] > 100 µM | [57] > 100 µM
> 100 µM: [47]
